Laboratory results from PMC11784026, “Phase 1 study of the safety, tolerability, and pharmacokinetics of a synthetic macrocyclic peptide antibiotic (BRII-693) in healthy adult participants” (Antimicrobial Agents and Chemotherapy, 2024).
Like-named read-outs stand apart in the source and are kept apart here. Marks after values point to notes of the source that are not given here. Where a SMILES comes first, the peptide text is derived from it. Bridges are numbered along the chain shown (N, C = ends). [ ]: non-standard residue; d: D form. The star is where a group is joined. X1 = O=C(c1ccc(Cl)cc1Cl)*; Dab = NCC[C@H](N)C(=O)O; Abu = CC[C@H](N)C(=O)O; Dap = NC[C@H](N)C(=O)O

Experiments:
[1] = SAD; for fe0–48h: % of dose in urine as unchanged drug over 48 h; for CLR: renal clearance
Procedure: During the SAD phase of the study, cohort dosing of 10, 25, 50, 100, 200, 300, and 400 mg of BRII-693 was evaluated in a sequential manner. Each of the seven SAD cohorts enrolled eight eligible participants (six active; two placebo). On day 1, participants received a single IV dose of BRII-693 or placebo as a 1-hour infusion. Participants were then discharged on day 3.
For the SAD cohorts, blood samples for the measurement of BRII-693 in plasma were obtained before dosing and at 0.5 (mid-infusion), 1 (end of infusion), 1.25, 1.5, 2, 4, 6, 8, 12, 24, 36, and 48 hours following the start of dosing infusion. Urine samples were collected for PK assessment before dosing and at the time intervals of 0–4, 4–8, 8–12, 12–24, 24–36, and 36–48 hours after the start of dosing infusion.
(§1) All blood samples were collected into EDTA-containing vials, immediately placed on ice, and centrifuged at 3,000× g for approximately 10 minutes at 4°C. Supernatant plasma was transferred to two pre-chilled cryopreservation vials (at least 1.0 mL per vial) and stored at −80°C until shipped to the analytical laboratory. Urine samples collected for each time interval were refrigerated, aliquoted, and stored at −80°C until shipped to the analytical laboratory. Plasma and urine samples were analyzed for BRII-693 concentrations using validated high-performance liquid chromatography with detection by mass spectrometry method (BioAgilytix, San Diego, CA). The assay range was 50.0–50,000 ng/mL in both plasma and urine.
(§2) Area under the concentration-time curve (AUC) from time zero to the time of the last quantifiable concentration (AUC0–last), AUC from time zero to infinity (AUC0–inf), AUC within a dosing interval of 6 hours (AUC0–6h), maximum observed concentration (Cmax), time to reach maximum concentration (Tmax), apparent terminal half-life (t1/2), total clearance (CL), volume of distribution during terminal phase (Vz), and accumulation ratio based on AUC (ARAUC) were determined for BRII-693 in plasma. Urine parameters included amount and percentage of dose recovered in urine as unchanged drug over each collection interval and cumulatively and renal clearance (CLR). PK parameters were determined using noncompartmental methods in Phoenix WinNonlin (Certara, Version 8.3).

[2] = Procedure: During the MAD phase of the study, repeat dosing of 100, 150, and 200 mg of BRII-693 was evaluated in sequential cohorts (cohorts 8–10) composed of eight participants each (six active; two placebo). Participants first received a single dose of BRII-693 or placebo as a 1-hour IV infusion on day 1; and then 48 hours later on day 3 through day 9, participants received BRII-693 or placebo every 6 hours (q6h) for 7 days, with the last dose in the morning on day 9. Participants were discharged on day 11. In the remaining two MAD cohorts (cohorts 11 and 12), repeat dosing of 150 mg of BRII-693 q6h for 14 days was evaluated in non-Chinese and Chinese (first and second generation) participants. Each cohort comprises 12 participants (10 active and 2 placebo). The last dose was in the morning on day 14, and participants were discharged on day 17.
For the 7-day MAD cohorts 8–10, blood samples were collected (i) on day 1 before dosing and at 0.5, 1, 1.25, 1.5, 2, 4, 6, 8, 12, 24, 36, and 48 hours following the start of dosing infusion; (ii) on day 3 prior to the morning dose and at 0.5, 1, 1.25, 1.5, 2, 4, and 6 hours after the start of the first dosing infusion; (iii) on day 9 before dosing and at 0.5, 1, 1.25, 1.5, 2, 4, 6, 8, 12, 24, 36, and 48 hours following the start of the last dosing infusion in the morning. Urine samples were collected before dosing and at the time intervals of 0–4, 4–8, 8–12, 12–24, 24–36, and 36–48 hours after the start of dosing infusion on days 1 and 9.
For the 14-day MAD cohorts 11 and 12, blood samples were collected (i) on day 1 prior to and at 0.5, 1, 1.25, 1.5, 2, 4, and 6 hours after the start of the first dosing infusion and (ii) on day 14 before dosing and at 0.5, 1, 1.25, 1.5, 2, 4, 6, 8, 12, 24, 36, 48, 60, and 72 hours following the start of the last dosing infusion in the morning. Urine samples were collected before dosing and at the time intervals of 0–4, 4–8, 8–12, 12–24, 24–36, 36–48, and 48–72 hours after the start of dosing infusion on Day 14.
as §1, §2

Remark: listed apart in the source
[3] = single 1-h IV infusion 10 mg, n = 5, arithmetic mean ± SD
[4] = single 1-h IV infusion 25 mg, n = 5, arithmetic mean ± SD
[5] = single 1-h IV infusion 50 mg, n = 6, arithmetic mean ± SD
[6] = single 1-h IV infusion 100 mg, n = 6, arithmetic mean ± SD
[7] = single 1-h IV infusion 200 mg, n = 6, arithmetic mean ± SD
[8] = single 1-h IV infusion 300 mg, n = 6, arithmetic mean ± SD
[9] = single 1-h IV infusion 400 mg, n = 6, arithmetic mean ± SD

For CC[C@@H]1NC(=O)[C@@H](CC(C)C)NC(=O)[C@H](CCN)NC(=O)[C@@H](NC(=O)[C@H](CN)NC(=O)[C@@H](NC(=O)[C@H](CCN)NC(=O)c2ccc(Cl)cc2Cl)[C@@H](C)O)CCNC(=O)[C@H]([C@@H](C)O)NC(=O)[C@H](CCN)NC(=O)[C@H](CCN)NC1=O [BRII-693] (X1-[Dab]T[Dap][Dab][Dab][dL][Abu][Dab][Dab]T; lactam 4-C; N-terminus assumed), which “fe0–48h” value [1, 3] is on record?
The value was 0.95 ± 0.50^b %.

What about the CLR [1, 3] of the same compound?
The CLR was 0.036 ± 0.018^b L/h.

What about the “fe0–48h” value [1, 4] of the same compound?
Its value is 5.73 ± 3.67%.

And the CLR [1, 4]?
Its CLR is 0.22 ± 0.12 L/h.

And the “fe0–48h” value [1, 5]?
Its value is 21.5 ± 9.19%.

And the CLR [1, 5]?
The CLR was 0.86 ± 0.33 L/h.

And the “fe0–48h” value [1, 6]?
The value was 40.2 ± 5.40%.

What about the CLR [1, 6] of the same compound?
The CLR was 1.51 ± 0.31 L/h.

What about the “fe0–48h” value [1, 7] of the same compound?
Its value is 47.6 ± 15.6%.

What about the CLR [1, 7] of the same compound?
Its CLR is 1.92 ± 0.80 L/h.

What about the “fe0–48h” value [1, 8] of the same compound?
The value was 57.5 ± 16.2%.

What about the CLR [1, 8] of the same compound?
Its CLR is 2.44 ± 0.50 L/h.

What about the “fe0–48h” value [1, 9] of the same compound?
Its value is 68.4 ± 11.4%.

And the CLR [1, 9]?
Its CLR is 2.68 ± 0.42 L/h.

What about the CLR ([2]; Last q6h dose (day 9), 7-day MAD 100 mg q6h × 7, renal clearance, n = 6, arithmetic mean ± SD) of the same compound?
Its CLR is 1.40 ± 0.60 L/h.

What about the “fe0–48h” value ([2]; Last q6h dose (day 9), 7-day MAD 100 mg q6h × 7, urinary recovery over 48 h, n = 6, arithmetic mean ± SD) of the same compound?
Its value is 66.5 ± 18.0%.

And the CLR ([2]; Last q6h dose (day 9), 7-day MAD 150 mg q6h × 7, renal clearance, n = 5, arithmetic mean ± SD)?
Its CLR is 1.60 ± 0.60 L/h.

And the “fe0–48h” value ([2]; Last q6h dose (day 9), 7-day MAD 150 mg q6h × 7, urinary recovery over 48 h, n = 5, arithmetic mean ± SD)?
The value was 57.2 ± 19.2%.

What about the CLR ([2]; Last q6h dose (day 9), 7-day MAD 200 mg q6h × 7, renal clearance, n = 5, arithmetic mean ± SD) of the same compound?
The CLR was 1.41 ± 0.23 L/h.

What about the “fe0–48h” value ([2]; Last q6h dose (day 9), 7-day MAD 200 mg q6h × 7, urinary recovery over 48 h, n = 5, arithmetic mean ± SD) of the same compound?
Its value is 74.3 ± 30.3%.

What about the CLR ([2]; Last q6h dose (day 14), 14-day MAD 150 mg q6h × 14, Chinese, renal clearance, n = 6, arithmetic mean ± SD) of the same compound?
The CLR was 1.67 ± 0.43 L/h.

And the “fe0–48h” value ([2]; Last q6h dose (day 14), 14-day MAD 150 mg q6h × 14, Chinese, urinary recovery over 48 h, n = 6, arithmetic mean ± SD)?
The value was 70.9 ± 22.0%.

And the CLR ([2]; Last q6h dose (day 14), 14-day MAD 150 mg q6h × 14, non-Chinese, renal clearance, n = 10, arithmetic mean ± SD)?
The CLR was 1.91 ± 0.79 L/h.

What about the “fe0–48h” value ([2]; Last q6h dose (day 14), 14-day MAD 150 mg q6h × 14, non-Chinese, urinary recovery over 48 h, n = 10, arithmetic mean ± SD) of the same compound?
Its value is 74.1 ± 25.6%.

What about the “Urinary recovery compared with polymyxin B” value ([2]; comparison with literature polymyxin B data (ref 11)) of the same compound?
Its value is “higher urinary recovery than polymyxin B”.

What about the “Participants reporting AEs” value (7-day MAD cohorts 8–10, after multiple dosing, all BRII-693-treated (5 of 17)) of the same compound?
Its value is 29.4%.

And the “Participants reporting AEs” value (7-day MAD cohorts 8–10, after single dosing on day 1, all BRII-693-treated (3 of 17))?
The value was 17.6%.

And the “Participants who discontinued the study due to treatment-related AE (headache, moderate)” value (7-day MAD, 200 mg, after the single dose on day 1 (One of 6))?
The value was 16.7%.

And the “Participants reporting AEs” value (7-day MAD, after multiple dosing, 100 mg q6h (2 of 6))?
Its value is 33.3%.

And the “Participants reporting AEs” value (7-day MAD, after multiple dosing, 200 mg q6h (3 of 6))?
The value was 50.0%.

What about the “Participants reporting AEs” value (7-day MAD, after single dosing on day 1, 150 mg (1 of 5)) of the same compound?
The value was 20.0%.

And the “Participants reporting AEs” value (7-day MAD, after single dosing on day 1, 200 mg (2 of 6))?
The value was 33.3%.

And the “Participants reporting AEs” value (SAD phase, 100 mg (1 of 6))?
The value was 16.7%.

What about the “Participants reporting AEs” value (SAD phase, 200 mg (1 of 6)) of the same compound?
Its value is 16.7%.

And the “Severity of AEs” value (SAD phase, all AEs (five events, placebo included))?
Its value is “mild in severity”.

And the “Participants reporting AEs” value (SAD phase, all BRII-693-treated participants (2 of 41))?
The value was 4.9%.

What about the “Participants reporting AEs” value (cohort 11, 150 mg q6h × 14 days, non-Chinese (5 of 10)) of the same compound?
The value was 50.0%.

And the “Participants reporting AEs” value (cohort 12, 150 mg q6h × 14 days, Chinese (Five of the 10))?
The value was 50.0%.

And the “Overall safety and tolerability” value (in vivo, iv)?
Its value is “safe and well tolerated”.
